Assay results reported in paper PMC4414724 (Chemico-biological interactions, 2015).
Like-named read-outs stand apart in the source and are kept apart here.

Key:
[1] = target: rat liver alcohol dehydrogenase (Rattus norvegicus, UniProt P06757); assay: Oxidation of alcohols by isolated rat liver alcohol dehydrogenase
horse liver ADH1E = horse liver ADH1E (Equus caballus, UniProt P00327); assay: Reactions of horse liver ADH1E with 1,5-pentanediol and 5-hydroxypentanal; assay type: biochemical; details: for concentration formed in dismutation reaction: 5 mM 5-hydroxypentanal, 1 mM NAD+, 0.01 mg/mL ADH, at 12 h, GC
Sequence of horse liver ADH1E (P00327 2-375 limits assumed): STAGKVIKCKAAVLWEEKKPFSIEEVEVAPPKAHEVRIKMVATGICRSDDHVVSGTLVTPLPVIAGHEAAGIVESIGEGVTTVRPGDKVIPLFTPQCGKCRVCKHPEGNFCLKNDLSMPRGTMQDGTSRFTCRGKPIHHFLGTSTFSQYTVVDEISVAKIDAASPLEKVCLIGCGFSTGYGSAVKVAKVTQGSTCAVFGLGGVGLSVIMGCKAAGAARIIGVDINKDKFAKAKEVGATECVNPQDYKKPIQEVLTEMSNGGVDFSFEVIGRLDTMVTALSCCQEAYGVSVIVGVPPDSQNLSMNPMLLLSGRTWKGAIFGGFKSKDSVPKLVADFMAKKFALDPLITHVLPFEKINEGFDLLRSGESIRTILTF

ethanol elimination = details: cited from earlier work
methanol metabolism = details: cited from earlier work
rat liver ADH = details: read-out: in vitro Ki (competitive against alcohol); cited from earlier work
cytochrome P-450 = details: read-out: in vitro Ki; cited from earlier work
ADH3 = ADH3 (UniProt P12711); details: cited from earlier work
[2] = test system: microsomal ethanol oxidizing system (NADPH-dependent cytochrome P-450 enzymes); details: cited from earlier work
[3] = humans; cited from earlier work
[4] = cited from earlier work
rat liver ADH1 = details: cited from earlier work
[5] = data for zero order elimination, rats without inhibitors
[6] = calculated from kinetic constants with Michaelis-Menten equation for 5 mM alcohol
[7] = from inhibition by 1 mmole/kg 4-methylpyrazole
[8] = observed rate without inhibitors minus the rate with 1 mmole/kg 4-methylpyrazole
[9] = primary alcohols and diols, doses of 5–20 mmole/kg
[10] = 83 mM potassium phosphate, 40 mM KCl, pH 7.3, 37 °C, 0.5 mM NAD+
[11] = rats fasted 24 h, dose mmole/kg: 2-propanol 17, 2-propanol-d7 15
[12] = secondary alcohols, doses of 5–10 mmole/kg
[13] = uninhibited rate at higher 4-methylpyrazole and isobutyramide

Sequence of rat liver alcohol dehydrogenase (P06757 2-376 limits assumed): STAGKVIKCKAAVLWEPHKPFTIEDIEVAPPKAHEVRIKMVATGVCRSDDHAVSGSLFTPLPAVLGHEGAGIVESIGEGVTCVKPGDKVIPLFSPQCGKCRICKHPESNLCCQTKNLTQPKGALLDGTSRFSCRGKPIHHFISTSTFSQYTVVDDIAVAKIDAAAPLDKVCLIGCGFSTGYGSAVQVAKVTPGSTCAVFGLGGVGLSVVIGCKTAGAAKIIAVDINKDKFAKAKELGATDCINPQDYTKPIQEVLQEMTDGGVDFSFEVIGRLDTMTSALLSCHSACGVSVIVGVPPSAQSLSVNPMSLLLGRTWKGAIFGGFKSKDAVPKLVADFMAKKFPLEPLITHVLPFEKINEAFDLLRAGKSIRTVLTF

Structure (SMILES): OCCO [1,2-Ethanediol, 1,2-ethanediol]
- r (fraction of body weight accessible to the alcohol) (rat, in vivo, ip): 0.72 ± 0.08 mL/g
- V rel (Vmax relative to ethanol as substrate) ([1]; pH 7.3): 0.99 ± 0.25
- Vrel/K ([1]; pH 7.3): 0.0013

Structure (SMILES): CC(O)CCO (stereo not drawn) [1,3-Butanediol, 1,3-butanediol]
- in vivo rate of elimination [5]: 5.0 ± 0.3 mmol/kg/h
- Rate due to ADH (male, rat, in vivo): 4.1
- r (fraction of body weight accessible to the alcohol) (male, rat, in vivo, ip): 0.82 ± 0.05 mL/g
- %ADH (estimated percentage of elimination due to ADH) (rat, in vivo): 82%
- in vitro v rel [1, 6]: 0.44

Structure (SMILES): OCCCO [1,3-Propanediol, 1,3-propanediol]
- in vivo rate of elimination [5]: 2.7 ± 0.8 mmol/kg/h
- %ADH (estimated percentage of elimination due to ADH) [7]: 63%
- Rate due to ADH [8]: 1.7
- kinetics of elimination in rats (order) [9]: zero-order kinetics
- Km [1, 10]: 24 ± 2 mM
- V rel (Vmax relative to ethanol as substrate) [1, 10]: 0.75 ± 0.04
- in vitro v rel [1, 6]: 0.13
- Vrel/K ([1]; pH 7.3, 37 °C, 0.5 mM NAD+): 0.031

Structure (SMILES): OCCCCO [1,4-Butanediol, 1,4-butanediol]
- Rate due to ADH (male, rat, in vivo): 5.8
- in vivo rate of elimination (male, rat, in vivo): 6.7 ± 0.1 mmol/kg/h
- r (fraction of body weight accessible to the alcohol) (male, rat, in vivo, ip): 1.3 ± 0.2 mL/g
- %ADH (estimated percentage of elimination due to ADH) (rat, in vivo): 86%
- kinetics of elimination in rats (order) (rat, in vivo): zero-order kinetics
- in vitro v rel [1]: 0.52
- V rel (Vmax relative to ethanol as substrate) ([1]; pH 7.3): 1.5 ± 0.3
- Vrel/K ([1]; pH 7.3): 0.16

Structure (SMILES): OCCCCCO [1,5-Pentanediol, 1,5-pentanediol]
- Vmax relative to the activity on ethanol (horse liver ADH1E): 1.1
- concentration formed in dismutation reaction (horse liver ADH1E): ~ 2 mM
- kinetics of elimination in rats (order) [9]: zero-order kinetics
- V rel (Vmax relative to ethanol as substrate) [1, 10]: 3.6 ± 1.3
- Vrel/K ([1]; pH 7.3, 37 °C, 0.5 mM NAD+): 1.0

Structure (SMILES): CCCCO [1-Butanol, 1-butanol]
- %ADH (estimated percentage of elimination due to ADH) [7]: 56%
- in vivo rate of elimination (rat, in vivo): 3.2 ± 0.4 mmol/kg/h
- Km [1, 10]: 0.14 ± 0.03 mM
- V rel (Vmax relative to ethanol as substrate) [1, 10]: 1.3 ± 0.1
- in vitro v rel [1, 6]: 1.3
- Vrel/K ([1]; pH 7.3, 37 °C, 0.5 mM NAD+): 9.3

Structure (SMILES): CCCO [1-Propanol, 1-propanol]
- %ADH (estimated percentage of elimination due to ADH) [7]: 81%
- Rate due to ADH (rat, in vivo): 4.3
- in vivo rate of elimination (rat, in vivo): 5.3 ± 0.5 mmol/kg/h
- kinetics of elimination in rats (order) (rat, in vivo): zero-order kinetics
- r (fraction of body weight accessible to the alcohol) (rat, in vivo, ip): 0.67 ± 0.09 mL/g
- Km [1, 10]: 0.22 ± 0.03 mM
- V rel (Vmax relative to ethanol as substrate) [1, 10]: 0.95 ± 0.07
- in vitro v rel [1, 6]: 0.91
- Vrel/K ([1]; pH 7.3, 37 °C, 0.5 mM NAD+): 4.3

Structure (SMILES): CCC(C)O (stereo not drawn) [2-Butanol, 2-butanol]
- %ADH (estimated percentage of elimination due to ADH) [7]: 68%
- Rate due to ADH (rat, in vivo): 1.7
- in vivo rate of elimination (rat, in vivo): 2.5 ± 0.4 mmol/kg/h
- kinetics of elimination in rats (order) (rat, in vivo): first order kinetics
- 10^4 k1 (first order, alcohol to ketone) (rat, in vivo, ip): 112 ± 17 min^−1
- 10^4 k2 (first order, elimination of ketone) (rat, in vivo, ip): 37 ± 4 min^−1
- k2 (zero order, elimination of ketone) (rat, in vivo, ip): 1.1 ± 0.2 mmol/kg/h
- r (rat, in vivo, ip): 0.74 ± 0.08 mL/g
- Km [1, 10]: 12 ± 6 mM
- V rel (Vmax relative to ethanol as substrate) [1, 10]: 0.48 ± 0.03
- in vitro v rel [1, 6]: 0.14
- Vrel/K ([1]; pH 7.3, 37 °C, 0.5 mM NAD+): 0.04

Structure (SMILES): CCC(C)=O [2-Butanone]
- 10^4 k2 (first order, elimination of ketone) (rat, in vivo, ip): 31 ± 2 min^−1
- k2 (zero order, elimination of ketone) (rat, in vivo, ip): 1.3 mmol/kg/h
- r (rat, in vivo, ip): 0.81 mL/g

Structure (SMILES): CC(C)CO [2-Methyl-1-propanol, 2-methyl-1-propanol]
- %ADH (estimated percentage of elimination due to ADH) [7]: 66%
- in vivo rate of elimination (rat, in vivo): 3.8 ± 0.5 mmol/kg/h
- Km [1, 10]: 0.19 ± 0.04 mM
- V rel (Vmax relative to ethanol as substrate) [1, 10]: 0.80 ± 0.04
- in vitro v rel [1, 6]: 0.77
- Vrel/K ([1]; pH 7.3, 37 °C, 0.5 mM NAD+): 4.2

Structure (SMILES): CC(C)O [2-Propanol, 2-propanol]
- inhibition of the rate of elimination (by 1 mmole/kg of 4-methylpyrazole): 55%
- k2 (zero order, elimination of ketone) (fed rats, 10 mmole/kg isobutyramide (IBA), dose 10 mmole/kg): 0.44 mmol/kg/h
- %ADH (estimated percentage of elimination due to ADH) [7]: 55%
- 10^4 k1 (first order, alcohol to ketone) (rat, in vivo): 42 ± 4 min^−1
- 10^4 k2 (first order, elimination of ketone) (rat, in vivo): 14.3 ± 0.6 min^−1
- Km (rat, in vivo): 58 ± 20 mM
- Vmax, Michaelis-Menten fit of elimination in vivo (rat, in vivo): 0.38 ± 0.10 mM/min
- r (rat, in vivo): 0.75 ± 0.01 mL/g
- k2 (zero order, elimination of ketone) [11]: 0.64 ± 0.02 mmol/kg/h
- V rel (Vmax relative to ethanol as substrate) [1, 10]: 0.40 ± 0.02
- Km ([1]; 83 mM potassium phosphate, 40 mM KCl, pH 7.3, 37 °C, 0.5 mM NAD+, listed as 2-propanol): 36 ± 7 mM
- in vitro v rel [1, 6]: 0.049
- Vrel/K ([1]; pH 7.3, 37 °C, 0.5 mM NAD+): 0.011

Structure (SMILES): CC(C)O [2-Propanol-d7, 2-propanol-d7]
- Km ([1]; 83 mM potassium phosphate, 40 mM KCl, pH 7.3, 37 °C, 0.5 mM NAD+, listed as 2-propanol-d7): 83 ± 15 mM

Structure (SMILES): [2H]C([2H])([2H])C([2H])(O)C([2H])([2H])[2H] [2-Propanol-d7, 2-propanol-d7]
- 10^4 k1 (first order, alcohol to ketone) (rat, in vivo): 18 ± 2 min^−1
- 10^4 k2 (first order, elimination of ketone) (rat, in vivo): 13 ± 2 min^−1
- k2 (zero order, elimination of ketone) (rat, in vivo): 0.44 ± 0.06 mmol/kg/h
- 10^4 k1 (first order, alcohol to ketone) (rat, in vivo, ip): 25 ± 2 min^−1
- 10^4 k2 (first order, elimination of ketone) (rat, in vivo, ip): 19 ± 4 min^−1
- k2 (zero order, elimination of ketone) (rat, in vivo, ip): 0.59 ± 0.08 mmol/kg/h
- r [11]: 0.70 ± 0.03 mL/g
- kinetics of elimination in rats (order) [12]: first order kinetics
- V rel (Vmax relative to ethanol as substrate) [1, 10]: 0.20 ± 0.02
- in vitro v rel [1, 6]: 0.011
- Vrel/K ([1]; pH 7.3, 37 °C, 0.5 mM NAD+): 0.0024

Structure (SMILES): Nc1nc[nH]n1 [3-Aminotriazole, 3-Amino-1,2,4-triazole]
- inhibition of ethanol metabolism in rats (ethanol elimination): ~ 10%
- inhibition of methanol metabolism (methanol metabolism): ~ 35%

Structure (SMILES): CC(C)CCO [3-Methyl-1-butanol, 3-methyl-1-butanol]
- %ADH (estimated percentage of elimination due to ADH) [7]: 61%
- in vivo rate of elimination (male, Sprague-Dawley, rat, in vivo): 4.6 ± 0.8 mmol/kg/h
- V rel (Vmax relative to ethanol as substrate) [1, 10]: 0.54 ± 0.02
- in vitro v rel [1, 6]: 0.53
- Vrel/K ([1]; pH 7.3): 13

Structure (SMILES): CCC(O)CC [3-Pentanol, 3-pentanol]
- %ADH (estimated percentage of elimination due to ADH) [7]: 90%
- Rate due to ADH [8]: 3.6
- kinetics of elimination in rats (order) [12]: first order kinetics
- V rel (Vmax relative to ethanol as substrate) [1, 10]: 0.69 ± 0.03
- in vitro v rel [1, 6]: 0.35
- Vrel/K ([1]; pH 7.3, 37 °C, 0.5 mM NAD+): 0.14

Structure (SMILES): Cc1cn[nH]c1 [4-methylpyrazole]
- Ki (rat liver ADH): 0.00011 mM
- effective, in vivo, competitive Ki (ethanol elimination; in the rat): 1.4 µmol/kg
- inhibition of elimination of ethanol (ethanol elimination; inhibitor dose 1 mmole/kg, ethanol 20 mmole/kg): 87%
- Ki (cytochrome P-450): 5.7 mM

Structure (SMILES): OCc1ccccc1 [Benzyl alcohol, benzyl alcohol]
- Ki [1]: 27 mM
- V rel (Vmax relative to ethanol as substrate) [1, 10]: 0.47 ± 0.03
- Vrel/K ([1]; pH 7.3, 37 °C, 0.5 mM NAD+): 13

Structure (SMILES): OC1CCCCC1 [Cyclohexanol, cyclohexanol]
- %ADH (estimated percentage of elimination due to ADH) [7]: 74%
- Rate due to ADH (male, rat, in vivo): 3.2
- in vivo rate of elimination (male, rat, in vivo): 4.3 ± 1.5 mmol/kg/h
- 10^4 k1 (first order, alcohol to ketone) (male, rat, in vivo, ip): 229 ± 70 min^−1
- 10^4 k2 (first order, elimination of ketone) (male, rat, in vivo, ip): 50 ± 6 min^−1
- r (male, rat, in vivo, ip): 0.75 ± 0.21 mL/g
- in vitro v rel [1, 6]: 0.90

Structure (SMILES): O=C1CCCCC1 [Cyclohexanone]
- 10^4 k1 (first order, alcohol to ketone) (male, rat, in vivo, ip): 176 ± 13 min^−1
- 10^4 k2 (first order, elimination of ketone) (male, rat, in vivo, ip): 67 ± 3 min^−1
- r (male, rat, in vivo, ip): 0.53 mL/g

Structure (SMILES): OC1CCCC1 [Cyclopentanol, cyclopentanol]
- %ADH (estimated percentage of elimination due to ADH) [7]: 64%
- Rate due to ADH [8]: 3.0
- kinetics of elimination in rats (order) [12]: first order kinetics
- V rel (Vmax relative to ethanol as substrate) [1, 10]: 0.72 ± 0.04
- in vitro v rel [1, 6]: 0.68
- Vrel/K ([1]; pH 7.3, 37 °C, 0.5 mM NAD+): 2.2

Structure (SMILES): CCO [Ethanol, ethanol]
- %ADH (estimated percentage of elimination due to ADH) [7]: 89%
- in vivo rate of elimination (rat, in vivo): 7.9 ± 1.0 mmol/kg/h
- activity of ADH3 (ADH3): no detectable activity
- Km [2]: 9.6 mM
- possible contribution to the rate of ethanol metabolism [2]: 20–25%
- rate of elimination [3]: about 2.2 mmol/kg•h
- rate of elimination ([4]; fed rats): about 8 mmol/kg•h
- Km of inhibitor-insensitive elimination [4, 13]: 21 mmol/kg
- Vmax of inhibitor-insensitive elimination [4, 13]: 2.1 mmol/kg/h
- Km [1, 10]: 0.64 ± 0.22 mM
- V rel (Vmax relative to ethanol as substrate) [1, 10]: (1.0)
- in vitro v rel [1, 6]: 0.88
- Vrel/K ([1]; pH 7.3, 37 °C, 0.5 mM NAD+): 1.6

Structure (SMILES): CO [Methanol]
- Rate (zero-order elimination) (fed rat, MP+AT, methanol 10 mmole/kg i.p.): 0.41 mmol/kg/h
- time required to eliminate the dose (rat, in vivo): 15 h
- Rate (zero-order elimination) (rat, in vivo, ip): 0.56 ± 0.01 mmol/kg/h
- Vmax relative to ethanol (rat liver ADH1): 0.10
- Km [2]: 22 mM

Structure (SMILES): CC(C)C(N)=O [isobutyramide]
- in vivo Ki (uncompetitive) (ethanol elimination): 1 mmol/kg

Structure (SMILES): c1cn[nH]c1 [pyrazole, reference compound]
- Inhibition of the ADH reactions ([1]; 10 mM pyrazole): almost totally inhibited

Structure (SMILES): O=C1CCCCO1 [δ-valerolactone]
- concentration formed in dismutation reaction (horse liver ADH1E): ~ 2 mM
